# Data: ChEMBL document CHEMBL5241069, “A key review on oxadiazole analogs as potential methicillin-resistant Staphylococcus aureus (MRSA) activity: Structure-activity relationship studies” (Eur J Med Chem, 2021)
# Assays:
# Staphylococcus aureus [1] = experiment: Antibacterial activity against methicillin resistant Staphylococcus aureus 42 assessed as inhibition of bacterial growth; assay type: functional
# Staphylococcus aureus [2] = experiment: Antibacterial activity against methicillin resistant Staphylococcus aureus 128 assessed as inhibition of bacterial growth; assay type: functional
# Staphylococcus aureus [3] = experiment: Antibacterial activity against methicillin resistant Staphylococcus aureus 181 assessed as inhibition of bacterial growth; assay type: functional
# Staphylococcus aureus [4] = experiment: Antibacterial activity against methicillin resistant Staphylococcus aureus 747 assessed as inhibition of bacterial growth; assay type: functional
# Staphylococcus aureus [5] = experiment: Potency index, ratio of cefepime MIC to test compound MIC for antibacterial activity against methicillin resistant Staphylococcus aureus 42 assessed as inhibition of bacterial growth; assay type: functional
# Staphylococcus aureus [6] = experiment: Antibacterial activity against Staphylococcus aureus ATCC 27660 assessed as inhibition of bacterial growth by CLSI protocol based microdilution method; assay type: functional
# Staphylococcus aureus [7] = experiment: Antibacterial activity against vancomycin resistant Staphylococcus aureus 1 assessed as inhibition of bacterial growth by CLSI protocol based microdilution method; assay type: functional
# Staphylococcus aureus [8] = experiment: Antibacterial activity against Staphylococcus aureus NRS119 assessed as inhibition of bacterial growth by CLSI protocol based microdilution method; assay type: functional
# Staphylococcus aureus [9] = experiment: Antibacterial activity against Staphylococcus aureus ATCC 29213 assessed as inhibition of bacterial growth by CLSI protocol based microdilution method; assay type: functional
# [10] = Oral bioavailability in ICR mouse at 50 mg/kg; assay type: ADME, organism-based; details: in vivo
# Staphylococcus aureus [11] = experiment: Antibacterial activity against vancomycin resistant Staphylococcus aureus 2 assessed as inhibition of bacterial growth by CLSI protocol based microdilution method; assay type: functional
# Staphylococcus aureus [12] = experiment: Antibacterial activity against Staphylococcus aureus NRS120 assessed as inhibition of bacterial growth by CLSI protocol based microdilution method; assay type: functional
# [13] = Elimination half life in ICR mouse at 50 mg/kg, iv; assay type: ADME, organism-based; details: in vivo, read-out: beta t1/2 (converted)
# Staphylococcus aureus [14] = experiment: Antibacterial activity against Staphylococcus aureus NRS100 (COL) assessed as inhibition of bacterial growth by CLSI protocol based microdilution method; assay type: functional
# Staphylococcus aureus [15] = experiment: Antimicrobial activity against methicillin resistant Staphylococcus aureus C5177 assessed as inhibition of cell growth in the presence of oxacillin at 1/2 times of MIC by microdilution method; assay type: functional
# Staphylococcus aureus [16] = experiment: Antimicrobial activity against methicillin resistant Staphylococcus aureus C5171 assessed as inhibition of cell growth in the presence of oxacillin at 1/8 times of MIC by microdilution method; assay type: functional
# Staphylococcus aureus [17] = experiment: Antimicrobial activity against methicillin resistant Staphylococcus aureus C4058 assessed as inhibition of cell growth in the presence of oxacillin at 1/4 times of MIC by microdilution method; assay type: functional
# Staphylococcus aureus [18] = experiment: Antimicrobial activity against methicillin resistant Staphylococcus aureus C4058 assessed as inhibition of cell growth in the presence of oxacillin at 1/2 times of MIC by microdilution method; assay type: functional
# Staphylococcus aureus [19] = experiment: Antimicrobial activity against methicillin resistant Staphylococcus aureus C3212 assessed as inhibition of cell growth in the presence of oxacillin at 1/2 times of MIC by microdilution method; assay type: functional
# Staphylococcus aureus [20] = experiment: Antimicrobial activity against methicillin resistant Staphylococcus aureus K118 assessed as inhibition of cell growth in the presence of oxacillin at 1/4 times of MIC by microdilution method; assay type: functional
# Staphylococcus aureus [21] = experiment: Antimicrobial activity against methicillin resistant Staphylococcus aureus C5380 assessed as inhibition of cell growth in the presence of oxacillin at 1/8 times of MIC by microdilution method; assay type: functional
# Staphylococcus aureus [22] = experiment: Antimicrobial activity against methicillin resistant Staphylococcus aureus C5282 assessed as inhibition of cell growth in the presence of oxacillin at 1/4 times of MIC by microdilution method; assay type: functional
# Staphylococcus aureus [23] = experiment: Antimicrobial activity against methicillin resistant Staphylococcus aureus K118 assessed as inhibition of cell growth in the presence of oxacillin at 1/8 times of MIC by microdilution method; assay type: functional
# Staphylococcus aureus [24] = experiment: Antimicrobial activity against methicillin resistant Staphylococcus aureus C5294 assessed as inhibition of cell growth in the presence of oxacillin at 1/4 times of MIC by microdilution method; assay type: functional
# Staphylococcus aureus [25] = experiment: Antimicrobial activity against methicillin resistant Staphylococcus aureus C3212 assessed as inhibition of cell growth in the presence of oxacillin at 1/8 times of MIC by microdilution method; assay type: functional
# Staphylococcus aureus [26] = experiment: Antimicrobial activity against methicillin resistant Staphylococcus aureus C5380 assessed as inhibition of cell growth in the presence of oxacillin at 1/4 times of MIC by microdilution method; assay type: functional
# Staphylococcus aureus [27] = experiment: Antimicrobial activity against methicillin resistant Staphylococcus aureus C5382 assessed as inhibition of cell growth in the presence of oxacillin at 1/2 times of MIC by microdilution method; assay type: functional
# Staphylococcus aureus [28] = experiment: Antimicrobial activity against methicillin resistant Staphylococcus aureus C5294 assessed as inhibition of cell growth in the presence of oxacillin at 1/8 times of MIC by microdilution method; assay type: functional
# Staphylococcus aureus [29] = experiment: Antimicrobial activity against methicillin resistant Staphylococcus aureus C3787 assessed as inhibition of cell growth in the presence of oxacillin at 1/2 times of MIC by microdilution method; assay type: functional
# Staphylococcus aureus [30] = experiment: Antimicrobial activity against methicillin resistant Staphylococcus aureus C5269 assessed as inhibition of cell growth in the presence of oxacillin at 1/4 times of MIC by microdilution method; assay type: functional
# Staphylococcus aureus [31] = experiment: Antimicrobial activity against methicillin resistant Staphylococcus aureus C4058 assessed as inhibition of cell growth in the presence of oxacillin at 1/8 times of MIC by microdilution method; assay type: functional
# Staphylococcus aureus [32] = experiment: Antimicrobial activity against methicillin resistant Staphylococcus aureus C5269 assessed as inhibition of cell growth in the presence of oxacillin at 1/8 times of MIC by microdilution method; assay type: functional
# Staphylococcus aureus [33] = experiment: Antimicrobial activity against methicillin resistant Staphylococcus aureus C5294 assessed as inhibition of cell growth in the presence of oxacillin at 1/2 times of MIC by microdilution method; assay type: functional
# Staphylococcus aureus [34] = experiment: Antimicrobial activity against methicillin resistant Staphylococcus aureus C5382 assessed as inhibition of cell growth in the presence of oxacillin at 1/4 times of MIC by microdilution method; assay type: functional
# Staphylococcus aureus [35] = experiment: Antimicrobial activity against methicillin resistant Staphylococcus aureus C5282 assessed as inhibition of cell growth in the presence of oxacillin at 1/8 times of MIC by microdilution method; assay type: functional
# Staphylococcus aureus [36] = experiment: Antimicrobial activity against methicillin resistant Staphylococcus aureus C3787 assessed as inhibition of cell growth in the presence of oxacillin at 1/4 times of MIC by microdilution method; assay type: functional
# Staphylococcus aureus [37] = experiment: Antimicrobial activity against methicillin resistant Staphylococcus aureus C5171 assessed as inhibition of cell growth in the presence of oxacillin at 1/4 times of MIC by microdilution method; assay type: functional
# Staphylococcus aureus [38] = experiment: Antimicrobial activity against methicillin resistant Staphylococcus aureus C5380 assessed as inhibition of cell growth in the presence of oxacillin at 1/2 times of MIC by microdilution method; assay type: functional
# Staphylococcus aureus [39] = experiment: Antimicrobial activity against methicillin resistant Staphylococcus aureus C3787 assessed as inhibition of cell growth in the presence of oxacillin at 1/8 times of MIC by microdilution method; assay type: functional
# Staphylococcus aureus [40] = experiment: Antimicrobial activity against methicillin resistant Staphylococcus aureus C5177 assessed as inhibition of cell growth in the presence of oxacillin at 1/8 times of MIC by microdilution method; assay type: functional
# Staphylococcus aureus [41] = experiment: Antimicrobial activity against methicillin resistant Staphylococcus aureus C3212 assessed as inhibition of cell growth in the presence of oxacillin at 1/4 times of MIC by microdilution method; assay type: functional
# Staphylococcus aureus [42] = experiment: Antimicrobial activity against methicillin resistant Staphylococcus aureus C5177 assessed as inhibition of cell growth in the presence of oxacillin at 1/4 times of MIC by microdilution method; assay type: functional
# Staphylococcus aureus [43] = experiment: Antimicrobial activity against methicillin resistant Staphylococcus aureus C5171 assessed as inhibition of cell growth in the presence of oxacillin at 1/2 times of MIC by microdilution method; assay type: functional
# Staphylococcus aureus [44] = experiment: Antimicrobial activity against methicillin resistant Staphylococcus aureus C5382 assessed as inhibition of cell growth in the presence of oxacillin at 1/8 times of MIC by microdilution method; assay type: functional
compound,measurement,setting,value
O=c1c(Br)cnc2onc(-c3ccc(F)cc3F)n12,MIC,Staphylococcus aureus [1],12.4 µg/mL
same,MIC,Staphylococcus aureus [2],17.6 µg/mL
same,MIC,Staphylococcus aureus [3],29.9 µg/mL
same,MIC,Staphylococcus aureus [4],29.9 µg/mL
same,Ratio,Staphylococcus aureus [5],3
Oc1ccc(-c2nc(-c3ccc(Oc4ccc(C(F)(F)F)cc4)cc3)no2)cc1,MIC,Staphylococcus aureus [6],2 µg/mL
same,MIC,Staphylococcus aureus [7],2 µg/mL
same,MIC,Staphylococcus aureus [8],2 µg/mL
same,MIC,Staphylococcus aureus [9],2 µg/mL
same,bioavailability,[10],100%
same,MIC,Staphylococcus aureus [11],2 µg/mL
same,MIC,Staphylococcus aureus [12],2 µg/mL
same,half-life,[13],40 h
same,MIC,Staphylococcus aureus [14],2 µg/mL
FC(F)(F)c1ccc(Oc2ccc(-c3noc(-c4ccc5[nH]ccc5c4)n3)cc2)cc1,MIC,Staphylococcus aureus [15],≤ 0.03 µg/mL
same,MIC,Staphylococcus aureus [16],≤ 0.03 µg/mL
same,MIC,Staphylococcus aureus [17],≤ 0.03 µg/mL
same,MIC,Staphylococcus aureus [18],≤ 0.03 µg/mL
same,MIC,Staphylococcus aureus [19],≤ 0.03 µg/mL
same,MIC,Staphylococcus aureus [20],≤ 0.03 µg/mL
same,MIC,Staphylococcus aureus [21],≤ 0.03 µg/mL
same,MIC,Staphylococcus aureus [22],≤ 0.03 µg/mL
same,MIC,Staphylococcus aureus [23],≤ 0.03 µg/mL
same,MIC,Staphylococcus aureus [24],≤ 0.03 µg/mL
same,MIC,Staphylococcus aureus [25],≤ 0.03 µg/mL
same,MIC,Staphylococcus aureus [26],≤ 0.03 µg/mL
same,MIC,Staphylococcus aureus [27],≤ 0.03 µg/mL
same,MIC,Staphylococcus aureus [28],≤ 0.03 µg/mL
same,MIC,Staphylococcus aureus [29],≤ 0.03 µg/mL
same,MIC,Staphylococcus aureus [30],≤ 0.03 µg/mL
same,MIC,Staphylococcus aureus [31],≤ 0.03 µg/mL
same,MIC,Staphylococcus aureus [32],≤ 0.03 µg/mL
same,MIC,Staphylococcus aureus [33],≤ 0.03 µg/mL
same,MIC,Staphylococcus aureus [34],≤ 0.03 µg/mL
same,MIC,Staphylococcus aureus [35],≤ 0.03 µg/mL
same,MIC,Staphylococcus aureus [36],≤ 0.03 µg/mL
same,MIC,Staphylococcus aureus [37],≤ 0.03 µg/mL
same,MIC,Staphylococcus aureus [38],≤ 0.03 µg/mL
same,MIC,Staphylococcus aureus [39],≤ 0.03 µg/mL
same,MIC,Staphylococcus aureus [40],< 0.03 µg/mL
same,MIC,Staphylococcus aureus [41],≤ 0.03 µg/mL
same,MIC,Staphylococcus aureus [42],≤ 0.03 µg/mL
same,MIC,Staphylococcus aureus [43],≤ 0.03 µg/mL
same,MIC,Staphylococcus aureus [44],≤ 0.03 µg/mL
